Test results: the supplement of paper PMC10307832

What was measured:
Assay in all cases: relative viability (nuclei count vs DMSO), 5 days (fraction); higher = more cells survive
201T = test system: 201T
Outline: (§1)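 The day after seeding in 1536-well plates, lung cancer cell lines were treated by pin tool with a single drug, or with a fixed anchor-drug dose together with five library-drug doses (not always all listed) in √10 steps. After 5 days, a combined fix-and-stain solution (final 0.05% Triton X-100, 1% formaldehyde, 1 ug/ml Hoechst) was added. Nuclei counted on 4× images gave relative viability as treated counts over vehicle counts, reported as the median of duplicate plates.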

COR-L23 = test system: COR-L23
Outline: as §1

EPLC-272H = test system: EPLC-272H
Outline: as §1

H3255 = test system: H3255
Outline: as §1

HCC-15 = test system: HCC-15
Outline: as §1

LOU-NH91 = test system: LOU-NH91
Outline: as §1

NCI-H1650 = test system: NCI-H1650
Outline: as §1

NCI-H1734 = test system: NCI-H1734
Outline: as §1

NCI-H1793 = test system: NCI-H1793
Outline: as §1

NCI-H2023 = test system: NCI-H2023
Outline: as §1

NCI-H2170 = test system: NCI-H2170
Outline: as §1

NCI-H2347 = test system: NCI-H2347
Outline: as §1

NCI-H2405 = test system: NCI-H2405
Outline: as §1

NCI-H3122 = test system: NCI-H3122
Outline: as §1

NCI-H322M = test system: NCI-H322M
Outline: as §1

NCI-H441 = test system: NCI-H441
Outline: as §1

NCI-H520 = test system: NCI-H520
Outline: as §1

NCI-H647 = test system: NCI-H647
Outline: as §1

PC-14 = test system: PC-14
Outline: as §1

SW 900 = test system: SW 900
Outline: as §1

UMC-11 = test system: UMC-11
Outline: as §1

SMILES: Cc1sc2c(c1C)C(c1ccc(Cl)cc1)=N[C@@H](CC(=O)OC(C)(C)C)c1nnc(C)n1-2 [JQ1] + CC(=O)c1c(C)c2cnc(Nc3ccc(N4CCNCC4)cn3)nc2n(C2CCCC2)c1=O [Palbociclib] (partner 0.5 µM)
- relative viability (201T; first compound 0.04 µM): 0.334
- relative viability (201T; first compound 0.4 µM): 0.298
- relative viability (201T; first compound 1.265 µM): 0.313
- relative viability (201T; first compound 4 µM): 0.268
- relative viability (COR-L23; first compound 0.04 µM): 0.336
- relative viability (COR-L23; first compound 0.1265 µM): 0.193
- relative viability (COR-L23; first compound 0.4 µM): 0.25
- relative viability (COR-L23; first compound 1.265 µM): 0.165
- relative viability (COR-L23; first compound 4 µM): 0.162
- relative viability (EPLC-272H; first compound 0.04 µM): 0.315
- relative viability (EPLC-272H; first compound 0.1265 µM): 0.252
- relative viability (EPLC-272H; first compound 0.4 µM): 0.308
- relative viability (EPLC-272H; first compound 1.265 µM): 0.26
- relative viability (EPLC-272H; first compound 4 µM): 0.224
- relative viability (H3255; first compound 0.04 µM): 0.303
- relative viability (H3255; first compound 0.1265 µM): 0.321
- relative viability (H3255; first compound 0.4 µM): 0.283
- relative viability (H3255; first compound 1.265 µM): 0.247
- relative viability (H3255; first compound 4 µM): 0.228
- relative viability (HCC-15; first compound 0.04 µM): 0.648
- relative viability (HCC-15; first compound 0.1265 µM): 0.585
- relative viability (HCC-15; first compound 0.4 µM): 0.64
- relative viability (HCC-15; first compound 1.265 µM): 0.561
- relative viability (HCC-15; first compound 4 µM): 0.395
- relative viability (LOU-NH91; first compound 0.04 µM): 0.493
- relative viability (LOU-NH91; first compound 0.1265 µM): 0.474
- relative viability (LOU-NH91; first compound 0.4 µM): 0.491
- relative viability (LOU-NH91; first compound 1.265 µM): 0.394
- relative viability (LOU-NH91; first compound 4 µM): 0.446
- relative viability (NCI-H1650; first compound 0.04 µM): 0.322
- relative viability (NCI-H1650; first compound 0.1265 µM): 0.264
- relative viability (NCI-H1650; first compound 0.4 µM): 0.256
- relative viability (NCI-H1650; first compound 1.265 µM): 0.111
- relative viability (NCI-H1650; first compound 4 µM): 0.134
- relative viability (NCI-H1734; first compound 0.04 µM): 0.365
- relative viability (NCI-H1734; first compound 0.1265 µM): 0.334
- relative viability (NCI-H1734; first compound 0.4 µM): 0.313
- relative viability (NCI-H1734; first compound 1.265 µM): 0.279
- relative viability (NCI-H1734; first compound 4 µM): 0.303
- relative viability (NCI-H1793; first compound 0.04 µM): 0.331
- relative viability (NCI-H1793; first compound 0.1265 µM): 0.307
- relative viability (NCI-H1793; first compound 0.4 µM): 0.274
- relative viability (NCI-H1793; first compound 1.265 µM): 0.335
- relative viability (NCI-H1793; first compound 4 µM): 0.334
- relative viability (NCI-H2023; first compound 0.04 µM): 0.338
- relative viability (NCI-H2023; first compound 0.1265 µM): 0.281
- relative viability (NCI-H2023; first compound 0.4 µM): 0.225
- relative viability (NCI-H2023; first compound 1.265 µM): 0.135
- relative viability (NCI-H2023; first compound 4 µM): 0.105
- relative viability (NCI-H2170; first compound 0.04 µM): 0.342
- relative viability (NCI-H2170; first compound 0.1265 µM): 0.353
- relative viability (NCI-H2170; first compound 0.4 µM): 0.267
- relative viability (NCI-H2170; first compound 1.265 µM): 0.178
- relative viability (NCI-H2170; first compound 4 µM): 0.185
- relative viability (NCI-H2347; first compound 0.04 µM): 0.446
- relative viability (NCI-H2347; first compound 0.1265 µM): 0.393
- relative viability (NCI-H2347; first compound 0.4 µM): 0.385
- relative viability (NCI-H2347; first compound 1.265 µM): 0.327
- relative viability (NCI-H2347; first compound 4 µM): 0.32
- relative viability (NCI-H2405; first compound 0.04 µM): 0.571
- relative viability (NCI-H2405; first compound 0.4 µM): 0.522
- relative viability (NCI-H2405; first compound 1.265 µM): 0.471
- relative viability (NCI-H2405; first compound 4 µM): 0.311
- relative viability (NCI-H3122; first compound 0.04 µM): 0.22
- relative viability (NCI-H3122; first compound 0.1265 µM): 0.203
- relative viability (NCI-H3122; first compound 0.4 µM): 0.191
- relative viability (NCI-H3122; first compound 1.265 µM): 0.185
- relative viability (NCI-H3122; first compound 4 µM): 0.139
- relative viability (NCI-H322M; first compound 0.04 µM): 0.477
- relative viability (NCI-H322M; first compound 0.1265 µM): 0.491
- relative viability (NCI-H322M; first compound 0.4 µM): 0.428
- relative viability (NCI-H322M; first compound 1.265 µM): 0.385
- relative viability (NCI-H322M; first compound 4 µM): 0.406
- relative viability (NCI-H441; first compound 0.04 µM): 0.19
- relative viability (NCI-H441; first compound 0.1265 µM): 0.206
- relative viability (NCI-H441; first compound 0.4 µM): 0.176
- relative viability (NCI-H441; first compound 1.265 µM): 0.137
- relative viability (NCI-H441; first compound 4 µM): 0.132
- relative viability (NCI-H520; first compound 0.04 µM): 0.197
- relative viability (NCI-H520; first compound 0.1265 µM): 0.196
- relative viability (NCI-H520; first compound 0.4 µM): 0.184
- relative viability (NCI-H520; first compound 1.265 µM): 0.154
- relative viability (NCI-H520; first compound 4 µM): 0.143
- relative viability (NCI-H647; first compound 0.04 µM): 0.372
- relative viability (NCI-H647; first compound 0.1265 µM): 0.231
- relative viability (NCI-H647; first compound 0.4 µM): 0.13
- relative viability (NCI-H647; first compound 1.265 µM): 0.113
- relative viability (NCI-H647; first compound 4 µM): 0.0792
- relative viability (PC-14; first compound 0.04 µM): 0.486
- relative viability (PC-14; first compound 0.1265 µM): 0.238
- relative viability (PC-14; first compound 0.4 µM): 0.221
- relative viability (PC-14; first compound 1.265 µM): 0.116
- relative viability (PC-14; first compound 4 µM): 0.104
- relative viability (SW 900; first compound 0.04 µM): 0.506
- relative viability (SW 900; first compound 0.1265 µM): 0.465
- relative viability (SW 900; first compound 0.4 µM): 0.318
- relative viability (SW 900; first compound 1.265 µM): 0.289
- relative viability (SW 900; first compound 4 µM): 0.222
- relative viability (UMC-11; first compound 0.04 µM): 0.292
- relative viability (UMC-11; first compound 0.1265 µM): 0.226
- relative viability (UMC-11; first compound 0.4 µM): 0.227
- relative viability (UMC-11; first compound 1.265 µM): 0.257
- relative viability (UMC-11; first compound 4 µM): 0.184
